Data taken from BigSolDB 2.1.

O=[N+]([O-])c1ccc(O)c2ncccc12
solubility (mole fraction)
Conditions	in acetic acid	in acetone	in acetonitrile	in ethanol	in ethyl acetate
278.15 K	0.00224	0.00398	0.00113	0.000575	0.00339
280.65 K	0.00239	0.00429	0.00124	0.000625	0.00369
283.15 K	0.00259	0.00461	0.00137	0.000682	0.004
285.65 K	0.0028	0.00498	0.00151	0.00075	0.00437
288.15 K	0.00303	0.00538	0.00165	0.00082	0.00476
290.65 K	0.00328	0.0058	0.0018	0.000901	0.00517
293.15 K	0.00355	0.00624	0.00197	0.000988	0.00564
295.65 K	0.00383	0.00668	0.00214	0.00108	0.0061
298.15 K	0.00416	0.00721	0.00233	0.00118	0.00667
300.65 K	0.00449	0.00773	0.00256	0.00128	0.00724
303.15 K	0.00484	0.00831	0.00279	0.00139	0.00786
305.65 K	0.0052	0.00888	0.00304	0.00152	0.00857
308.15 K	0.00559	0.00956	0.00334	0.00166	0.00929
310.65 K	0.00601	0.0103	0.00366	0.00182	0.01
313.15 K	0.00649	0.0111	0.00403	0.00199	0.0109
